Literature values as cited in US10835585B2, “Shared neoantigens” (priority 2015, dated 2020).

What was measured:
[1] = system: serum prostate specific antigen (PSA); conditions: advanced hormone refractory prostate cancer; personalized vaccination combined with a low dose of estramustine
healthy human volunteers = conditions: 8 healthy volunteers, one single s.c. administration, versus 4 placebo subjects; whole blood
[2] = more than 25 clinical trials
[3] = system: ovarian carcinoma patients

Compound	patients with ≥50% decrease in serum prostate specific antigen (PSA) [1]	differential expression of genes versus placebo (healthy human volunteers)	toxicity profile [2]	generation of NY-ESO-1-specific CD4+ and CD8+ T-cell and antibody responses ([3]; 1.4 mg poly-ICLC and Montanide added to OLP, compared to OLP alone or OLP and Montanide, s.c.)	patients showing induction of CD4+ and CD8+ T cell, as well as antibody responses to the peptide ([3]; ovarian carcinoma patients, poly-ICLC with NY-ESO-1 peptide vaccine and Montanide, phase 1)
C[C@]12CC[C@@H]3c4ccc(OC(=O)N(CCCl)CCCl)cc4CC[C@H]3[C@@H]1CC[C@@H]2O [estramustine]	54%				
Polyinosinic-Polycytidylic Acid-poly-L-lysine Carboxymethylcellulose [poly-ICLC]		up to 212 genes	relatively benign toxicity profile	markedly enhanced	> 90%
